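Interpolation was linear, between the two tested concentrations surrounding the appropriate level; five concentrations were tested over 48 hours in 96-well plates. TGI: total growth inhibition.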
How the values were obtained:
Assay in all cases: DTP human tumour cell line panel, 48 h
MALME-3M melanoma = tested on: MALME-3M melanoma
XF 498 CNS = tested on: XF 498 CNS
SNB-75 CNS = tested on: SNB-75 CNS
SR leukemia = tested on: SR leukemia
LOX IMVI melanoma = tested on: LOX IMVI melanoma
KM12 colon = tested on: KM12 colon
SK-MEL-2 melanoma = tested on: SK-MEL-2 melanoma
MOLT-4 leukemia = tested on: MOLT-4 leukemia
DLD-1 colon = tested on: DLD-1 colon
SK-MEL-5 melanoma = tested on: SK-MEL-5 melanoma
CCRF-CEM leukemia = tested on: CCRF-CEM leukemia
U251 CNS = tested on: U251 CNS
HCT-15 colon = tested on: HCT-15 colon
TK-10 renal = tested on: TK-10 renal
HT29 colon = tested on: HT29 colon
UO-31 renal = tested on: UO-31 renal
IGROV1 ovarian = tested on: IGROV1 ovarian
M19-MEL melanoma = tested on: M19-MEL melanoma
NCI-H23 lung = tested on: NCI-H23 lung
K-562 leukemia = tested on: K-562 leukemia
SK-OV-3 ovarian = tested on: SK-OV-3 ovarian
NCI-H522 lung = tested on: NCI-H522 lung
SF-268 CNS = tested on: SF-268 CNS
KM20L2 colon = tested on: KM20L2 colon
EKVX NSCLC = tested on: EKVX NSCLC
M14 melanoma = tested on: M14 melanoma
A498 renal = tested on: A498 renal
UACC-62 melanoma = tested on: UACC-62 melanoma
SK-MEL-28 melanoma = tested on: SK-MEL-28 melanoma
SW-620 colon = tested on: SW-620 colon
HCT-116 colon = tested on: HCT-116 colon
OVCAR-5 ovarian = tested on: OVCAR-5 ovarian
HOP-18 NSCLC = tested on: HOP-18 NSCLC
OVCAR-8 ovarian = tested on: OVCAR-8 ovarian
HOP-92 NSCLC = tested on: HOP-92 NSCLC
HL-60(TB) leukemia = tested on: HL-60(TB) leukemia
RXF 393 renal = tested on: RXF 393 renal
RXF-631 renal = tested on: RXF-631 renal
HCC-2998 colon = tested on: HCC-2998 colon
RPMI-8226 leukemia = tested on: RPMI-8226 leukemia
SF-539 CNS = tested on: SF-539 CNS
SNB-19 CNS = tested on: SNB-19 CNS
SF-295 CNS = tested on: SF-295 CNS
786-0 renal = tested on: 786-0 renal
A549 NSCLC = tested on: A549 NSCLC
LXFL 529 NSCLC = tested on: LXFL 529 NSCLC
NCI-H460 lung = tested on: NCI-H460 lung
ACHN renal = tested on: ACHN renal
UACC-257 melanoma = tested on: UACC-257 melanoma
SN12C renal = tested on: SN12C renal
DU-145 prostate = tested on: DU-145 prostate
OVCAR-3 ovarian = tested on: OVCAR-3 ovarian
COLO 205 colon = tested on: COLO 205 colon
NCI-H226 lung = tested on: NCI-H226 lung
OVCAR-4 ovarian = tested on: OVCAR-4 ovarian
CAKI-1 renal = tested on: CAKI-1 renal
DMS 114 small cell lung = tested on: DMS 114 small cell lung
SNB-78 CNS = tested on: SNB-78 CNS
HOP-62 NSCLC = tested on: HOP-62 NSCLC

Measured: TGI

COc1cc2c[n+]3ccc4cc(OC)c(OC)cc4c3cc2cc1O
not listed: DU-145 prostate | OVCAR-3 ovarian | COLO 205 colon | NCI-H226 lung | OVCAR-4 ovarian | CAKI-1 renal | DMS 114 small cell lung | SNB-78 CNS | HOP-62 NSCLC
> 100 µM: all other assays above

CCOC(=O)C=C1CCC2(CC1)OCCO2
not listed: EKVX NSCLC | DMS 114 small cell lung | SNB-78 CNS | HOP-62 NSCLC
> 100 µM: all other assays above

CC1=NC(C(=O)O)Cc2c1[nH]c1ccccc21 (stereo not drawn)
not listed: SR leukemia | KM12 colon | HCT-116 colon | OVCAR-5 ovarian | RXF 393 renal | HCC-2998 colon | 786-0 renal | A549 NSCLC | UACC-257 melanoma | DU-145 prostate | OVCAR-4 ovarian | HOP-62 NSCLC
> 100 µM: all other assays above

CON(C)C(=O)CCCO
not listed: LOX IMVI melanoma | SK-OV-3 ovarian | A498 renal | OVCAR-5 ovarian | HCC-2998 colon | DU-145 prostate | SNB-78 CNS
> 100 µM: all other assays above

CC1=C(C(=O)CC(=O)C(=O)Nc2cccc(Cl)c2C)Sc2ccccc2N1
not listed: SNB-75 CNS | KM20L2 colon | A498 renal | DU-145 prostate | COLO 205 colon
> 100 µM: all other assays above
